Each structure is given as a SMILES string. The source made the active and inactive calls. How the calls were made is not given here.

Sequence of dTDP-4-dehydrorhamnose reductase (Mycobacterium tuberculosis (strain ATCC 25618 / H37Rv)) + dTDP-4-dehydrorhamnose 3,5-epimerase (Mycobacterium tuberculosis (strain ATCC 25618 / H37Rv)) (P9WH09 whole entry, looked up): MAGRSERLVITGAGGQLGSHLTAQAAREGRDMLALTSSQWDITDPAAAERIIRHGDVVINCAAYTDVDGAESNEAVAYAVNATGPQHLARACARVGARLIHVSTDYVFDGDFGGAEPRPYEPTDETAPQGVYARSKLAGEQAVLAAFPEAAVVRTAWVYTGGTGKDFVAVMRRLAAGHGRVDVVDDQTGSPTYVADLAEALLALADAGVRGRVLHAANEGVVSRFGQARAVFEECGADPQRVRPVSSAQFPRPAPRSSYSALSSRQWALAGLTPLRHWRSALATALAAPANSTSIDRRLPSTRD
Sequence of dTDP-4-dehydrorhamnose reductase (Mycobacterium tuberculosis (strain ATCC 25618 / H37Rv)) + dTDP-4-dehydrorhamnose 3,5-epimerase (Mycobacterium tuberculosis (strain ATCC 25618 / H37Rv)) (P9WH11 whole entry, looked up): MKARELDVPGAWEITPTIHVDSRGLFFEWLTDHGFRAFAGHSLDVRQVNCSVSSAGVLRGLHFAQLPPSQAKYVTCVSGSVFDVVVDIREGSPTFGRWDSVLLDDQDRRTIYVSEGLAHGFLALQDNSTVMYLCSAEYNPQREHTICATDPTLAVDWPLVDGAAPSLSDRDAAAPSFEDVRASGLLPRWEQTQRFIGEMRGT

This test has as its target dTDP-4-dehydrorhamnose reductase (Mycobacterium tuberculosis (strain ATCC 25618 / H37Rv)) + dTDP-4-dehydrorhamnose 3,5-epimerase (Mycobacterium tuberculosis (strain ATCC 25618 / H37Rv)) (UniProt P9WH09+P9WH11). Kind of test: dTDP dehydrorhamnose epimerase and reductase, coupled enzyme assay, Mycobacterium tuberculosis, IC50 (AID 1695). As to conditions: coupled RmlC/RmlD enzyme assay.
Take `C=CCOC(=O)C1=C(C)NC(SCC(=O)NC(=O)OCC)=C(C#N)C1c1cccnc1` (stereo unspecified): the IC50 entry is “inactive”.

Consider `CC1=CC(c2ccccc2)n2nc(NS(=O)(=O)c3ccc(C)cc3)nc2N1` (stereo unspecified), for which the IC50 result is “inactive”.

Consider `O=C1CCC(=O)N1c1nc2nc(-c3ccccc3)cc(-c3ccccc3)n2n1`, for which the IC50 result was “inactive”.

`COC(=O)C1=CNC=C(C(=O)OC)C1c1cccc(OC)c1`: the IC50 entry was “inactive”.

Take `COc1ccccc1N=c1oc2cc(O)ccc2cc1C(N)=O`: the IC50 entry is “inactive”.

Regarding `CCOC(=O)C1=C(CSc2nc(-c3ccccc3)ccc2C#N)OC(N)=C(C#N)C1c1cccnc1` (stereo unspecified), the IC50 result is “inactive”.

Turning to `CCCCCCc1cc2cc(-c3nnc(-c4ccccc4OC)o3)c(=O)oc2cc1O`, the IC50 entry was “inactive”.

For the molecule `COC(=O)/C(=C/Nc1cccc2ccccc12)[N+](=O)[O-]`, the IC50 entry was “inactive”.

As to `CC1=C(C#N)C(c2cccnc2)C2=C(CCCC2=O)N1` (stereo unspecified), the IC50 result is “inactive”.

Take `CC1=C(C#N)C(c2cccnc2)C2=C(CC(C)(C)CC2=O)N1` (stereo unspecified): the IC50 entry is “inactive”.

With `COc1ccc(OC)c(/C=N/NC(=O)CC2C(=O)NN=C2C)c1` (stereo unspecified), the IC50 result was “inactive”.

For the origin of these results see PubChem BioAssay AID1695 (PCMD, 2009).
